Measured values as given in US6855669B2, “Use of α,β unsaturated aliphatic aldehydes and ketones to inhibit potato tuber sprouting” (Washington State University Research Foundation, priority 2000, dated 2005).

What was measured:
Assay type in all cases: in vivo, Solanum tuberosum
[1] = test system: Desiree potatoes (tubers); assay: Example 1: plant emergence and plant growth from treated tubers planted in greenhouse; conditions: 200 μL then 1000 μL in 9.2 L desiccator, 56 hour treatment, harvest 21 days after planting
Experimental: Methods: […] potatoes were produced in research plots at the Edmonton Research Station, University of Alberta in 1999. The tubers were harvested in September, washed, transported to Washington State University and placed in 4° C. storage in late October. Tubers, selected for uniform size, were taken from the storage area for the experiment in June. The 9-month-old tubers were fully emerged from dormancy after this prolonged storage interval; however, no sprout growth had occurred at the low storage temperature. The tubers were washed, air-dried, and evenly divided between two 9.2 liter (L) glass desiccators (8 tubers per desiccator). Trans-2-hexenal (200 μL) was pipetted into a 50 milliliter (mL) beaker that was placed inside one of the desiccators. The other desiccator served as control. Both desiccators were closed and the tubers were incubated in the two atmospheres for 32 hours. The desiccators were then opened, an additional 1000 μL of trans-2-hexenal was added to the beaker, and the desiccators were closed for an additional 24 hours. One tuber from each chamber was sampled for trans-2-hexenal content at the end of the 56 hour treatment interval. […] Time to plant emergence was recorded and plants were harvested 21 days after planting. Plants were separated into various components (e.g., stems, leaves) at harvest and the effects of trans-2-hexenal on plant morphology were assessed.

Umatilla seed-tubers = assay: Example 2: etiolated sprout development and tuber quality, Umatilla; conditions: 4.7 mmol/kg potato tubers, 25 days
Experimental: (§1) Methods: Ten-month-old Ranger Russet, Umatilla and Russet Burbank seed-tubers were taken from 4° C. storage and treated with trans-2-hexenal in 9.2-L glass desiccators as described in Example 1. The tubers were exposed to trans-2-hexenal for 0, 12 and 24 hours at 23° C. at a concentration of 4.7 mmol/kg potato tubers. Regardless of exposure time, all tubers remained enclosed in the chambers for the entire 24 hour period. This was accomplished by introducing the trans-2-hexenal at zero-time (into the 24 hour treatment desiccator) and after 12 hour incubation (into the 12 hour treatment desiccator) through a septum in the top of the closed desiccator. The treated tubers were planted into moistened peat/perlite/soil potting mix and placed in the dark at 24° C. to stimulate sprouting. The experiment was set up in a randomized complete block design (5 replicates) with treatments (3 cultivars×3 exposure times) arranged factorially. Effects of trans-2-hexenal exposure and cultivar on etiolated sprout development and tuber quality were assessed 25 days after removal from the 4° C. storage.

[2] = test system: Ranger Russet seed-tubers; assay: Example 2: etiolated sprout development and tuber quality, Ranger Russet; conditions: 4.7 mmol/kg potato tubers, 25 days
Experimental: as §1

`CCC/C=C/C=O` [trans-2-hexenal] was tested, and the “sprouting, plant emergence and plant growth from potato tubers (in words)” value [1] was “clearly inhibited sprouting”, the “Average Sprout Length” value (Umatilla seed-tubers; 12 h exposure) was 0 cm/tuber and the “External Pit Rating (1-4 scale)” value (Umatilla seed-tubers; 12 h exposure) was 3.7. The “Soft Rot Lesions” value (Umatilla seed-tubers; 12 h exposure) was 2.2 no/tuber, the “Sprout Fresh Weight” value (Umatilla seed-tubers; 12 h exposure) was 0 g/tuber and the “Average Sprout Length” value (Umatilla seed-tubers; 24 h exposure) was 0 cm/tuber. The “External Pit Rating (1-4 scale)” value (Umatilla seed-tubers; 24 h exposure) was 4.0, the “Soft Rot Lesions” value (Umatilla seed-tubers; 24 h exposure) was 2.6 no/tuber and the “Sprout Fresh Weight” value (Umatilla seed-tubers; 24 h exposure) was 0 g/tuber. The “Average Sprout Length” value ([2]; 12 h exposure) was 0 cm/tuber, the “External Pit Rating (1-4 scale)” value ([2]; 12 h exposure) was 3.1 and the “Soft Rot Lesions” value ([2]; 12 h exposure) was 1.0 no/tuber. For the same molecule, the “Sprout Fresh Weight” value ([2]; 12 h exposure) was 0 g/tuber, the “Average Sprout Length” value ([2]; 24 h exposure) was 0 cm/tuber and the “External Pit Rating (1-4 scale)” value ([2]; 24 h exposure) was 3.7. The “Soft Rot Lesions” value ([2]; 24 h exposure) was 1.2 no/tuber and the “Sprout Fresh Weight” value ([2]; 24 h exposure) was 0 g/tuber.
